Where “and” joins values, the source holds several entries; their conditions need not be identical. Equal values may be shown once. Toxic doses and inconclusive results are not listed. Rule for the calls: active = survival T/C of 150% or more; inactive = T/C below 125% in these data. Residues, ends and D or L forms follow the SMILES beside them. *: point of attachment. Cbz = O=C(OCc1ccccc1)*
Test system: CD2F1 mice, L1210 leukemia ip, survival T/C
Experiment: NCI In Vivo Anticancer Drug Screen. Data for tumor model L1210 Leukemia (intraperitoneal) in CD2F1 (CDF1) mice
Conditions: higher = longer survival
In short: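 In this screen, transplantable tumors were grown in mice given either the compound or its vehicle. Results were expressed as the treated measurement relative to the control measurement.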

[1] = endpoint: mean survival time, dose: 100.0 mg/kg/injection, schedule: Q04DX003 (ip), vehicle: saline with Tween-80
[2] = endpoint: mean survival time, dose: 200.0 mg/kg/injection, schedule: Q04DX003 (ip), vehicle: saline with Tween-80
[3] = endpoint: mean survival time, dose: 400.0 mg/kg/injection, schedule: Q04DX003 (ip), vehicle: saline with Tween-80
[4] = endpoint: mean survival time, dose: 50.0 mg/kg/injection, schedule: Q01DX009 (ip), vehicle: saline with Tween-80
[5] = endpoint: mean survival time, dose: 100.0 mg/kg/injection, schedule: Q01DX009 (ip), vehicle: saline with Tween-80
[6] = endpoint: mean survival time, dose: 200.0 mg/kg/injection, schedule: Q01DX009 (ip), vehicle: saline with Tween-80
[7] = endpoint: mean survival time, dose: 50.0 mg/kg/injection, schedule: Q01DX009 (ip), vehicle: other
[8] = endpoint: mean survival time, dose: 100.0 mg/kg/injection, schedule: Q01DX009 (ip), vehicle: other
[9] = endpoint: mean survival time, dose: 200.0 mg/kg/injection, schedule: Q01DX009 (ip), vehicle: other
[10] = endpoint: mean survival time, dose: 100.0 mg/kg/injection, schedule: Q04DX002 (ip), vehicle: saline with Tween-80
[11] = endpoint: mean survival time, dose: 200.0 mg/kg/injection, schedule: Q04DX002 (ip), vehicle: saline with Tween-80
[12] = endpoint: mean survival time, dose: 400.0 mg/kg/injection, schedule: Q01DX009 (ip), vehicle: saline with Tween-80
[13] = endpoint: mean survival time, dose: 75.0 mg/kg/injection, schedule: Q04DX003 (ip), vehicle: saline
[14] = endpoint: mean survival time, dose: 150.0 mg/kg/injection, schedule: Q04DX003 (ip), vehicle: saline
[15] = endpoint: mean survival time, dose: 300.0 mg/kg/injection, schedule: Q04DX003 (ip), vehicle: saline
[16] = endpoint: mean survival time, dose: 100.0 mg/kg/injection, schedule: Q01DX001 (ip), vehicle: saline
[17] = endpoint: mean survival time, dose: 200.0 mg/kg/injection, schedule: Q01DX001 (ip), vehicle: saline
[18] = endpoint: mean survival time, dose: 400.0 mg/kg/injection, schedule: Q01DX001 (ip), vehicle: saline
[19] = endpoint: mean survival time, dose: 200.0 mg/kg/injection, schedule: Q04DX003 (ip), vehicle: saline
[20] = endpoint: mean survival time, dose: 400.0 mg/kg/injection, schedule: Q04DX003 (ip), vehicle: saline
[21] = endpoint: mean survival time, dose: 100.0 mg/kg/injection, schedule: Q04DX003 (ip), vehicle: saline

Measured: T/C

O=C(O)CCC1C2C=CC(C2)C1C(=O)O (stereo not drawn)
inactive: [1] 96 % of control | [2] 96 % of control | [3] 98 % of control

Cc1c[n+](Cc2ccccc2)ccn1
inactive: endpoint: mean survival time, dose: 75.0 mg/kg/injection, schedule: Q01DX001 (ip), vehicle: saline 102 % of control | endpoint: mean survival time, dose: 150.0 mg/kg/injection, schedule: Q01DX001 (ip), vehicle: saline 102 % of control | endpoint: mean survival time, dose: 300.0 mg/kg/injection, schedule: Q01DX001 (ip), vehicle: saline 98 % of control

CN=C(N)N/N=C(\C)c1ccc2c(c1)Cc1ccccc1-2
inactive: endpoint: mean survival time, dose: 12.5 mg/kg/injection, schedule: Q01DX009 (ip), vehicle: saline with Tween-80 102 % of control | endpoint: mean survival time, dose: 25.0 mg/kg/injection, schedule: Q01DX009 (ip), vehicle: saline with Tween-80 105 % of control | [4] 108 % of control | [5] 97 % of control | [6] 91 % of control | endpoint: median survival time, dose: 12.5 mg/kg/injection, schedule: Q01DX009 (ip), vehicle: saline with Tween-80 101 % of control | endpoint: median survival time, dose: 25.0 mg/kg/injection, schedule: Q01DX009 (ip), vehicle: saline with Tween-80 106 % of control | endpoint: median survival time, dose: 50.0 mg/kg/injection, schedule: Q01DX009 (ip), vehicle: saline with Tween-80 103 % of control | endpoint: median survival time, dose: 100.0 mg/kg/injection, schedule: Q01DX009 (ip), vehicle: saline with Tween-80 101 % of control | endpoint: median survival time, dose: 200.0 mg/kg/injection, schedule: Q01DX009 (ip), vehicle: saline with Tween-80 106 % of control

O=C(O)CCCCCCCC(=O)O
inactive: endpoint: median survival time, dose: 6.25 mg/kg/injection, schedule: Q01DX009 (ip), vehicle: distilled water + Tween-80 101 % of control | endpoint: median survival time, dose: 12.5 mg/kg/injection, schedule: Q01DX009 (ip), vehicle: distilled water + Tween-80 95 % of control | endpoint: median survival time, dose: 25.0 mg/kg/injection, schedule: Q01DX009 (ip), vehicle: distilled water + Tween-80 101 % of control | endpoint: median survival time, dose: 50.0 mg/kg/injection, schedule: Q01DX009 (ip), vehicle: distilled water + Tween-80 89 % of control | endpoint: median survival time, dose: 100.0 mg/kg/injection, schedule: Q01DX009 (ip), vehicle: distilled water + Tween-80 97 % of control

CC(=O)OC1OC(CS[As](C)C)C(OC(C)=O)C(OC(C)=O)C1OC(C)=O (stereo not drawn)
inactive: [7] 96 % of control | [8] 108 % of control | [9] 93 % of control

CCOC(=O)C(Cc1ccccc1Cl)(NC(C)=O)C(=O)OCC
inactive: [1] 100 % of control | [2] 102 % of control | [3] 91 % of control

COc1ccc(OC)c(NC(=S)NC(=O)COc2ccccc2)c1
inactive: endpoint: mean survival time, dose: 100.0 mg/kg/injection, schedule: Q01DX001 (ip), vehicle: saline with Tween-80 87 % of control | [5] 94 % of control and 97 % of control | [10] 98 % of control | endpoint: mean survival time, dose: 200.0 mg/kg/injection, schedule: Q01DX001 (ip), vehicle: saline with Tween-80 87 % of control | [6] 88 % of control and 93 % of control | [11] 102 % of control | endpoint: mean survival time, dose: 400.0 mg/kg/injection, schedule: Q01DX001 (ip), vehicle: saline with Tween-80 89 % of control | [12] 102 % of control and 104 % of control | endpoint: mean survival time, dose: 400.0 mg/kg/injection, schedule: Q04DX002 (ip), vehicle: saline with Tween-80 109 % of control

COc1ccc(OC)c(OC)c1CC(C)N (stereo not drawn)
inactive: endpoint: mean survival time, dose: 25.0 mg/kg/injection, schedule: Q04DX002 (ip), vehicle: saline 108 % of control | endpoint: mean survival time, dose: 50.0 mg/kg/injection, schedule: Q04DX002 (ip), vehicle: saline 97 % of control | endpoint: mean survival time, dose: 100.0 mg/kg/injection, schedule: Q04DX002 (ip), vehicle: saline 91 % of control and 97 % of control

CCCCOP(=O)(OC)OCCCC
inactive: [10] 94 % of control | [11] 102 % of control

O=C(O)CCCc1cc(O)c2c(c1O)C(=O)c1ccccc1C2=O
inactive: endpoint: mean survival time, dose: 50.0 mg/kg/injection, schedule: Q04DX003 (ip), vehicle: saline with Tween-80 120 % of control | [1] 104 % of control | [2] 101 % of control

Cc1c(C)c(CSC#N)c(C)c(C)c1CSC#N
inactive: [13] 98 % of control | [14] 102 % of control | [15] 95 % of control

CN(C)C(=O)N(c1ccccc1)c1ccccc1
inactive: [10] 98 % of control | [11] 90 % of control

Cc1ccc(CN(C)N=Nc2ccc(C(=O)O)cc2)cc1
inactive: endpoint: mean survival time, dose: 25.0 mg/kg/injection, schedule: Q01DX009 (ip), vehicle: other 91 % of control | [7] 87 % of control | [8] 91 % of control | [9] 87 % of control

NC(=O)c1ncn(C2OC(COP(=O)(O)O)C(O)C2O)c1N (stereo not drawn)
inactive: endpoint: mean survival time, dose: 12.5 mg/kg/injection, schedule: Q01DX005 (ip), vehicle: water 97 % of control | endpoint: mean survival time, dose: 25.0 mg/kg/injection, schedule: Q01DX005 (ip), vehicle: water 96 % of control | endpoint: mean survival time, dose: 50.0 mg/kg/injection, schedule: Q01DX005 (ip), vehicle: water 102 % of control | [16] 102 % of control | endpoint: mean survival time, dose: 100.0 mg/kg/injection, schedule: Q01DX005 (ip), vehicle: water 94 % of control | [17] 95 % of control | endpoint: mean survival time, dose: 200.0 mg/kg/injection, schedule: Q01DX005 (ip), vehicle: water 100 % of control | [18] 101 % of control

OCCCCSc1ccccc1
inactive: [13] 98 % of control | [14] 98 % of control | [15] 91 % of control

O=C(O)c1ccc(S(=O)(=O)N(Cl)Cl)cc1
inactive: [1] 109 % of control | [2] 95 % of control | [3] 95 % of control

O=[N+]([O-])c1ccc(N/N=C/c2ccc(CO)cc2)c([N+](=O)[O-])c1
inactive: [19] 91 % of control | [20] 92 % of control

CCOC(=O)Nc1cc(=O)c([N+](=O)[O-])c(NC(=O)OCC)[nH]1
inactive: [13] 92 % of control | [14] 97 % of control | [15] 101 % of control

Cc1ccc(NC(=O)c2ccc(C(=O)Nc3ccc(C)cc3)cc2)cc1
inactive: [5] 98 % of control | [1] 87 % of control | [6] 88 % of control | [2] 97 % of control | [12] 93 % of control | [3] 86 % of control

O=C(/C=C\c1ccc(O)c(O)c1)OC1C(O)CC(OC(=O)/C=C/c2ccc(O)c(O)c2)(C(=O)O)CC1O (stereo not drawn)
inactive: [21] 98 % of control | [19] 96 % of control | [20] 95 % of control

NC(=O)C(Cl)(Cl)Cl
inactive: [5] 107 % of control | [21] 103 % of control | [6] 104 % of control | [19] 99 % of control | [12] 103 % of control | [20] 99 % of control

CCOP(=O)(Nc1ccc(F)cc1)OCC
inactive: endpoint: mean survival time, dose: 50.0 mg/kg/injection, schedule: Q01DX001 (ip), vehicle: carboxymethylcellulose (CMC) 106 % of control | endpoint: mean survival time, dose: 100.0 mg/kg/injection, schedule: Q01DX001 (ip), vehicle: carboxymethylcellulose (CMC) 96 % of control | endpoint: mean survival time, dose: 200.0 mg/kg/injection, schedule: Q01DX001 (ip), vehicle: carboxymethylcellulose (CMC) 100 % of control | endpoint: mean survival time, dose: 400.0 mg/kg/injection, schedule: Q01DX001 (ip), vehicle: carboxymethylcellulose (CMC) 102 % of control

O=C(O)CNC(=O)CNC(=O)CNC(=O)OCc1ccccc1 (Cbz-Gly-Gly-Gly-OH)
inactive: [1] 96 % of control | [2] 100 % of control | [3] 97 % of control

[Cl][Pt+2][Cl].[NH-]c1ccc(F)c(Cl)c1.[NH-]c1ccc(F)c(Cl)c1
inactive: endpoint: mean survival time, dose: 3.13 mg/kg/injection, schedule: Q04DX003 (ip), vehicle: distilled water + Tween-80 108 % of control | endpoint: mean survival time, dose: 6.25 mg/kg/injection, schedule: Q04DX003 (ip), vehicle: distilled water + Tween-80 103 % of control | endpoint: mean survival time, dose: 12.5 mg/kg/injection, schedule: Q04DX003 (ip), vehicle: distilled water + Tween-80 110 % of control | endpoint: mean survival time, dose: 25.0 mg/kg/injection, schedule: Q04DX003 (ip), vehicle: distilled water + Tween-80 110 % of control | endpoint: mean survival time, dose: 50.0 mg/kg/injection, schedule: Q04DX003 (ip), vehicle: distilled water + Tween-80 110 % of control

Cc1c2ccccc2c(CSCCC(N)C(=O)O)c2ccccc12 (stereo not drawn)
inactive: [1] 96 % of control | [2] 93 % of control | [3] 90 % of control

NC(=O)c1ccccc1C(=O)O
inactive: [16] 105 % of control | [17] 102 % of control | [18] 94 % of control

CCCSc1ccc2nc(NC(=O)OC)[nH]c2c1
inactive: [4] 93 % of control | [5] 107 % of control | [6] 118 % of control
